# Values joined by “and” are separate entries in the source; they are usually repeats but may differ in a detail not shown here. Identical values can stand only once.
# What was measured:
# [1] = design: method as in earlier work; conditions: rats, ref 42 (Choi et al. 2006); cited from earlier work
# [2] = test system: alloxan-induced diabetic rats; assay: Blood glucose level in alloxan-induced diabetes model; format: in vivo, Wistar female rats; conditions: mean ± SD; for Blood glucose (BG) level, mean: alloxan-induced diabetic rats, oral gavage daily for 5 weeks, metformin 300 mg/kg/day, S 150 mg/kg/day, sage extract 150 mg/kg/day; for Average blood glucose reduction (pre- vs post-treatment): end of week 3 vs end of week 8, oral daily 5 weeks, metformin 300, S 150, sage 150 mg/kg/day
# Experimental: The in vivo experiment was conducted using Wistar female rats, obtained through the “Grigore T. Popa” University of Medicine and Pharmacy (UMF) Iași, from the Cantacuzino Institute in Bucharest, Romania. Throughout the experimental period, the animals were housed at the CEMEX biobase, within the UMF “Grigore T. Popa” Iași. […] Female rats were selected in alignment with the broader research objective focused on diabetes-induced alterations of the female reproductive system.
# Following a 7-day acclimatization period, diabetes was induced in groups 2–6 by a single intraperitoneal injection of alloxan at a dose of 150 mg/kg body weight.
# Blood glucose (BG) was assessed 5 days post-administration using peripheral tail vein blood. A threshold of 200 mg/dL was used to confirm severe hyperglycemia. […] The end of week 3 thus marked the point of confirmed diabetes and the onset of pharmacological interventions. […] The full experimental timeline extended over 8 weeks.
# To minimize potential confounders, all experimental procedures—including compound administration and blood glucose level measurements— were performed at the same time of day for all animals. Blood glucose (BG) levels were monitored weekly using a portable glucometer (tail vein blood).
# To quantify the hypoglycemic effect of the applied treatments, the percentage decrease in blood glucose was calculated based on pre- and post-treatment values using the following formula: Absolute decrease in blood glucose %=blood glucose (pre−treatment)−blood glucose (post−treatment)/blood glucose (pre−treatment)×100
# [3] = Plasma steady-state concentration by HPLC and volume of distribution; conditions: female, Wistar, rat, oral, 300 mg/kg/day, rats, oral daily dosing 5 weeks, HPLC, metformin 300 mg/kg/day, S 150 mg/kg/day
# Experimental: At the end of the experimental period, blood samples were collected from the retro-orbital plexus under ketamine anesthesia (75 mg/kg body weight). Samples were collected into EDTA-coated tubes and stored at −20 °C until biochemical analyses were performed. Finally, the animals were humanely euthanized using Thiopental 0.01%.
# Extraction of the target compounds from whole blood samples was performed using a liquid–liquid extraction method, with dichloromethane as the organic solvent (sample: solvent ratio 1:2). The extraction was carried out under acidic conditions (pH 3, using 4% acetic acid). Following centrifugation, the organic phase was evaporated under a stream of high-purity nitrogen gas at 40 °C (Thermo Scientific, Bremen, Germany). The resulting dry residue was reconstituted in 500 µL of 10% methanol in water.
# Separation was achieved on a 150-4.6 LiChrospher®RP-18, 5 µm, column (Merck, Darmstadt, Germany). […] The flow rate was set to 1.0 mL/min, and the total run time for each analysis was 30 min.
# The volume of distribution at steady state (Vd) was calculated using the following formula: Vd=D/Css(L) where D represents the administered dose, calculated individually based on each animal’s body weight (mg/kg), and Css is the steady-state plasma concentration (mg/L).
"concentration at 5 weeks ([3]; Average plasma concentration (steady state), mean ± SD) [ng/mL]","concentration at 5 weeks ([3]; Plasma concentration, range) [ng/mL]",Compound,Fraction of oral dose subject to gastrointestinal and hepatic first-pass effects [1],"Blood glucose (BG) level, mean [2] [mg/dL]",Average blood glucose reduction (pre- vs post-treatment) [2]
5320 ± 1580,3170 to 7540,CN(C)C(=N)N=C(N)N [metformin],approximately 65%,224.8 ± 192.78,36.4% and 36.46 ± 32.5% and 36.46%
–,–,N-(diaminomethylene)-4-methylbenzenesulfonamide,–,236.0 ± 94.70,40.6% and 40.95 ± 15.94%

# Reference: PMC12297955, “Comparative Study: Biguanide-, Sulfonamide-, and Natural Agent-Based Interventions in an In Vivo Experimental Diabetes Model” (Medicina, 2025)
